# “And” between values parts separate entries of the source, which are not always exact repeats. Equal values may be shown once. Toxic doses and inconclusive results are not listed.
# Tested on: L1210 leukemia ip in BDF1 mice, survival T/C
# Assay: NCI In Vivo Anticancer Drug Screen. Data for tumor model L1210 Leukemia (intraperitoneal) in B6D2F1 (BDF1) mice
# Conditions: endpoint: mean survival time, higher = longer survival
# Method in brief: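 Transplantable tumor model; survival measured in treated vs vehicle control mice. Value = treated/control.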
# [1] = dose: 100.0 mg/kg/injection, schedule: Q01DX009 (ip), vehicle: saline
# [2] = dose: 100.0 mg/kg/injection, schedule: Q04DX003 (ip), vehicle: saline
# [3] = dose: 200.0 mg/kg/injection, schedule: Q01DX009 (ip), vehicle: saline
# [4] = dose: 200.0 mg/kg/injection, schedule: Q04DX003 (ip), vehicle: saline
# [5] = dose: 400.0 mg/kg/injection, schedule: Q01DX009 (ip), vehicle: saline
# [6] = dose: 400.0 mg/kg/injection, schedule: Q04DX003 (ip), vehicle: saline
# [7] = dose: 100.0 mg/kg/injection, schedule: Q01DX001 (ip), vehicle: other
# [8] = dose: 200.0 mg/kg/injection, schedule: Q01DX001 (ip), vehicle: other
# [9] = dose: 400.0 mg/kg/injection, schedule: Q01DX001 (ip), vehicle: other
# [10] = dose: 100.0 mg/kg/injection, schedule: Q01DX001 (ip), vehicle: saline
# [11] = dose: 200.0 mg/kg/injection, schedule: Q01DX001 (ip), vehicle: saline
# [12] = dose: 400.0 mg/kg/injection, schedule: Q01DX001 (ip), vehicle: saline
# [13] = dose: 100.0 mg/kg/injection, schedule: Q01DX001 (ip), vehicle: carboxymethylcellulose (CMC)
# [14] = dose: 200.0 mg/kg/injection, schedule: Q01DX001 (ip), vehicle: carboxymethylcellulose (CMC)
# [15] = dose: 400.0 mg/kg/injection, schedule: Q01DX001 (ip), vehicle: carboxymethylcellulose (CMC)
# [16] = dose: 100.0 mg/kg/injection, schedule: Q04DX002 (ip), vehicle: Klucel (hydroxypropylcellulose) (HPC)
# [17] = dose: 200.0 mg/kg/injection, schedule: Q04DX002 (ip), vehicle: Klucel (hydroxypropylcellulose) (HPC)
# [18] = dose: 400.0 mg/kg/injection, schedule: Q04DX002 (ip), vehicle: Klucel (hydroxypropylcellulose) (HPC)
smiles,measurement,setting,value
CC(=O)OC1CCC2(C)C(=CC(=O)C3C4CCC(C(C)C)C4CCC32)C1 (centres undefined),T/C,"dose: 75.0 mg/kg/injection, schedule: Q01DX009 (sc), vehicle: steriod suspending solution",95 % of control
same,T/C,"dose: 75.0 mg/kg/injection, schedule: Q04DX003 (sc), vehicle: steriod suspending solution",94 % of control
same,T/C,"dose: 150.0 mg/kg/injection, schedule: Q01DX009 (sc), vehicle: steriod suspending solution",109 % of control
same,T/C,"dose: 150.0 mg/kg/injection, schedule: Q04DX003 (sc), vehicle: steriod suspending solution",98 % of control
same,T/C,"dose: 300.0 mg/kg/injection, schedule: Q01DX009 (sc), vehicle: steriod suspending solution",108 % of control
same,T/C,"dose: 300.0 mg/kg/injection, schedule: Q04DX003 (sc), vehicle: steriod suspending solution",94 % of control
CCOC(=O)C(CC1OCCO1)C1=NC(C)(C)CC(C)O1 (centres undefined),T/C,[1],96 % of control
same,T/C,[2],106 % of control
same,T/C,[3],100 % of control
same,T/C,[4],92 % of control
same,T/C,[5],96 % of control
same,T/C,[6],92 % of control
CCN(CC)Cc1cc(C(=N)N)ccc1O,T/C,"dose: 56.0 mg/kg/injection, schedule: Q01DX Z (ip), vehicle: carboxymethylcellulose (CMC)",101 % of control
same,T/C,"dose: 83.0 mg/kg/injection, schedule: Q01DX Z (ip), vehicle: carboxymethylcellulose (CMC)",95 % of control
same,T/C,"dose: 125.0 mg/kg/injection, schedule: Q01DX Z (ip), vehicle: carboxymethylcellulose (CMC)",98 % of control
same,T/C,"dose: 187.5 mg/kg/injection, schedule: Q01DX Z (ip), vehicle: carboxymethylcellulose (CMC)",102 % of control
COc1c(OC)c2c3c(c(-c4c(C)cc5c(C(C)C)c(OC)c(OC)c6c5c4OC6=O)c(C)cc3c1C(C)C)OC2=O,T/C,"dose: 75.0 mg/kg/injection, schedule: Q04DX003 (ip), vehicle: Klucel (hydroxypropylcellulose) (HPC)",105 % of control
same,T/C,"dose: 150.0 mg/kg/injection, schedule: Q04DX003 (ip), vehicle: Klucel (hydroxypropylcellulose) (HPC)",92 % of control
same,T/C,"dose: 300.0 mg/kg/injection, schedule: Q04DX003 (ip), vehicle: Klucel (hydroxypropylcellulose) (HPC)",92 % of control
Oc1ccccc1C=NCCN=Cc1ccccc1O.[Cu],T/C,[7],97 % of control
same,T/C,"dose: 100.0 mg/kg/injection, schedule: Q04DX002 (ip), vehicle: saline",99 % of control
same,T/C,[8],103 % of control
same,T/C,"dose: 200.0 mg/kg/injection, schedule: Q04DX002 (ip), vehicle: saline",99 % of control
same,T/C,[9],94 % of control
same,T/C,"dose: 400.0 mg/kg/injection, schedule: Q04DX002 (ip), vehicle: saline",96 % of control
Cc1ccc(CC(=O)c2c[nH]c3ccccc23)c(Cl)c1C,T/C,"dose: 50.0 mg/kg/injection, schedule: Q01DX001 (ip), vehicle: saline",96 % of control
same,T/C,[10],98 % of control
same,T/C,[11],93 % of control
same,T/C,[12],98 % of control
O=C(O)C(F)(F)C(F)(F)C(=O)Nc1cc([N+](=O)[O-])ccc1F,T/C,[10],93 % of control
same,T/C,[11],93 % of control
same,T/C,[12],93 % of control
O=C(Nc1ccc([N+](=O)[O-])cc1Cl)Oc1ccc(Cl)cc1Cl,T/C,[13],97 % of control
same,T/C,"dose: 100.0 mg/kg/injection, schedule: Q01DX009 (ip), vehicle: carboxymethylcellulose (CMC)",109 % of control and 91 % of control
same,T/C,"dose: 100.0 mg/kg/injection, schedule: Q04DX002 (ip), vehicle: carboxymethylcellulose (CMC)",94 % of control and 90 % of control
same,T/C,"dose: 100.0 mg/kg/injection, schedule: Q04DX003 (ip), vehicle: carboxymethylcellulose (CMC)",102 % of control
same,T/C,[14],97 % of control
same,T/C,"dose: 200.0 mg/kg/injection, schedule: Q01DX009 (ip), vehicle: carboxymethylcellulose (CMC)",102 % of control and 91 % of control
same,T/C,"dose: 200.0 mg/kg/injection, schedule: Q04DX002 (ip), vehicle: carboxymethylcellulose (CMC)",93 % of control and 110 % of control
same,T/C,"dose: 200.0 mg/kg/injection, schedule: Q04DX003 (ip), vehicle: carboxymethylcellulose (CMC)",94 % of control
same,T/C,[15],98 % of control
same,T/C,"dose: 400.0 mg/kg/injection, schedule: Q01DX009 (ip), vehicle: carboxymethylcellulose (CMC)",98 % of control
same,T/C,"dose: 400.0 mg/kg/injection, schedule: Q04DX002 (ip), vehicle: carboxymethylcellulose (CMC)",93 % of control and 105 % of control
same,T/C,"dose: 400.0 mg/kg/injection, schedule: Q04DX003 (ip), vehicle: carboxymethylcellulose (CMC)",98 % of control
NC(=O)c1ccccc1NC(=O)Nc1cccc(C(F)(F)F)c1,T/C,"dose: 100.0 mg/kg/injection, schedule: Q01DX009 (ip), vehicle: Klucel (hydroxypropylcellulose) (HPC)",86 % of control
same,T/C,[16],102 % of control
same,T/C,"dose: 200.0 mg/kg/injection, schedule: Q01DX009 (ip), vehicle: Klucel (hydroxypropylcellulose) (HPC)",89 % of control
same,T/C,[17],105 % of control
same,T/C,"dose: 400.0 mg/kg/injection, schedule: Q01DX009 (ip), vehicle: Klucel (hydroxypropylcellulose) (HPC)",93 % of control
same,T/C,[18],108 % of control
COc1ccc(C(C)=O)c(OC)c1,T/C,[10],98 % of control
same,T/C,[1],112 % of control
same,T/C,[11],98 % of control
same,T/C,[3],94 % of control
same,T/C,[12],98 % of control
same,T/C,[5],102 % of control
CCC(CC)C(=O)OCC(C)(C)C,T/C,[13],96 % of control
same,T/C,[14],104 % of control
same,T/C,[15],96 % of control
O=c1c2[nH]cnc2nnn1CCc1ccccc1,T/C,[7],94 % of control
same,T/C,[8],93 % of control
same,T/C,[9],91 % of control
COc1ccc2c(c1)C1C=[S+]c3ccccc3C1N2 (centres undefined),T/C,"dose: 12.5 mg/kg/injection, schedule: Q01DX009 (ip), vehicle: saline",101 % of control
same,T/C,"dose: 12.5 mg/kg/injection, schedule: Q04DX003 (ip), vehicle: saline",95 % of control
same,T/C,"dose: 25.0 mg/kg/injection, schedule: Q01DX009 (ip), vehicle: saline",103 % of control
same,T/C,"dose: 25.0 mg/kg/injection, schedule: Q04DX003 (ip), vehicle: saline",92 % of control
same,T/C,"dose: 50.0 mg/kg/injection, schedule: Q04DX003 (ip), vehicle: saline",98 % of control
O=NN(CCCl)C(=O)Nc1ccccc1,T/C,"dose: 2.0 mg/kg/injection, schedule: Q01DX Z (ip), vehicle: carboxymethylcellulose (CMC)",114 % of control
same,T/C,"dose: 4.0 mg/kg/injection, schedule: Q01DX Z (ip), vehicle: carboxymethylcellulose (CMC)",169 % of control
same,T/C,"dose: 6.0 mg/kg/injection, schedule: Q01DX Z (ip), vehicle: carboxymethylcellulose (CMC)",160 % of control and 213 % of control
same,T/C,"dose: 10.0 mg/kg/injection, schedule: Q01DX Z (ip), vehicle: carboxymethylcellulose (CMC)",102 % of control
same,T/C,"dose: 14.0 mg/kg/injection, schedule: Q01DX Z (ip), vehicle: carboxymethylcellulose (CMC)",102 % of control
same,T/C,"dose: 18.0 mg/kg/injection, schedule: Q01DX001 (ip), vehicle: carboxymethylcellulose (CMC)",123 % of control
same,T/C,"dose: 18.0 mg/kg/injection, schedule: Q01DX Z (ip), vehicle: carboxymethylcellulose (CMC)",174 % of control
same,T/C,"dose: 20.0 mg/kg/injection, schedule: Q01DX Z (ip), vehicle: carboxymethylcellulose (CMC)",166 % of control
same,T/C,"dose: 25.0 mg/kg/injection, schedule: Q01DX Z (ip), vehicle: carboxymethylcellulose (CMC)",107 % of control and 89 % of control
same,T/C,"dose: 72.0 mg/kg/injection, schedule: Q01DX001 (ip), vehicle: carboxymethylcellulose (CMC)",114 % of control
NC(=S)N/N=C/c1ccccc1N,T/C,"dose: 100.0 mg/kg/injection, schedule: Q01DX009 (ip), vehicle: saline with Tween-80",102 % of control
same,T/C,"dose: 200.0 mg/kg/injection, schedule: Q01DX009 (ip), vehicle: saline with Tween-80",96 % of control
same,T/C,"dose: 400.0 mg/kg/injection, schedule: Q01DX009 (ip), vehicle: saline with Tween-80",96 % of control
Cc1cccc2c1NC(C)C2C (centres undefined),T/C,[1],102 % of control
same,T/C,[2],96 % of control
same,T/C,[3],98 % of control
same,T/C,[4],93 % of control
same,T/C,[5],98 % of control
same,T/C,[6],93 % of control
O=C(NC(=S)NCc1ccncc1)c1ccccc1,T/C,[16],100 % of control
same,T/C,[17],95 % of control
same,T/C,[18],92 % of control
